Results: patent US5599789A, “Method for the treatment of tumours and sarcomas” (Amrad Corporation Limited, priority 1991, dated 1997)
pKd: −log10 of the molar value.

Assays:
[1] = tested on: Ewing's Sarcoma cell line Al-1; assay: Colony formation in semi-solid agar cultures, Al-1 cells; format: cell-based, human; settings: day 18
Procedure: (§1) Tumour cells obtained from biopsy and bone marrow specimens from patients with Ewing's Sarcoma were used in these studies. Approval for this project has been obtained from the Ethics Committee of the Royal Children's Hospital.
(§2) Single cell suspensions of tumour cells were obtained by mechanical disruption with an 18G or 21G needle or by pipetting, followed by incubation with dispase II (Boehringer) at a concentration of 1.2 units per ml for 10 minutes at 37° C. Prior to the addition to agar-medium the cells were vortexed gently to prevent clumping.
(§3) Clonal cell lines were grown in Iscove's Modified Dulbecco's Medium (IMDM) supplemented with 10% v/v foetal calf serum (FCS; CSL Limited, Melbourne, Australia) and were passaged either weekly or twice weekly. The characteristics of the Ewing Sarcoma cell lines used herein as described below:
(§4) Cell lines derived from the above primary cell lines (Al and Cu) are identified by an Arabic numeral (e.g. Al-1, Al-5, Al-8 or Cu-1).
(§5) The tumour cells were immobilised in 0.3% w/v agar containing Iscove's Modified Dulbecco's Medium (IMDM) and 10% v/v FCS. […] Cultures were scored for the presence of colonies (>40 cells) or clusters (<40 cells). The number of cells plated per culture ranged from 500 to 10,000 per ml. Colonies were counted on an Olympus dissecting microscope.
(§6) IL-1, IL-3, IL-4, IL-6, M-CSF, G-CSF, GM-CSF, Stem Cell Factor (SCF), TNFα, TGFα, TGFβ, EGF, aFGF, bFGF, NGF, IGF I, IGF II, PDGF and IFN-γ.
(§7) The recombinant human leukaemia inhibitory factor (LIF) was obtained from AMRAD Corporation Limited, Melbourne, Australia.

[2] = tested on: Ewing's Sarcoma cell line Cu-1; assay: Colony formation in semi-solid agar cultures, Cu-1 cells; format: cell-based, human; settings: Cu-1, 10,000 cells, day 18
Procedure: as §1, §2, §3, §4, §5, §6, §7

Ewing's Sarcoma cells = assay: Colony formation in agar cultures, a number of different Ewing's cell lines (summary statements); format: cell-based, human
Source text: as §5

[3] = tested on: Ewing's sarcoma cells from cell line Al-5; assay: Clonogenicity in agar after LIF pretreatment in suspension culture; format: cell-based, human
Procedure: Ewing's sarcoma cells from cell line Al-5 in suspension cultures were incubated for seven days in the presence or absence of 100 ng/ml LIF prior to inoculation of replicate agar plates with 5×10^3 cells per ml which were then incubated for a further 18 days before colonies were scored. In all cases, the frequency of colonies obtained from LIF-pretreated cells was 35-55% lower compared to control cells.

[4] = tested on: LIF receptors on different Ewing sarcoma cells; assay: 125I-hLIF binding, second independent Scatchard analysis; design: species or system human; settings: read-out: Equilibrium dissociation constant
Procedure: A cloned Ewing sarcoma cell line Al5 (7×10^6 per point) in 100 μl of RPMI-medium containing 10 mM Hepes buffer pH 7.4 and 10% v/v foetal calf serum were incubated with increasing concentrations of ^125 I-hLIF (E. coli derived) (5000-800,000 cpm: 100,000 cpm/ng) with or without 5 μg/ml of unlabelled hLIF for 3 hrs on ice. The incubation mixture was then layered over 180 μl cold foetal calf serum, centrifuged at top speed in an Eppendoff microfuge for 10 sec and the tip of the tube containing the cell pellet cut with a scalpel blade and removed for counting in a gamma counter.

LIF: recombinant human leukaemia inhibitory factor (E. coli derived) from AMRAD Corporation Limited
Colonies/Cultures ([1]; Al-1, 1,000 cells, stimulus 0.01 ng): 50 | Colonies/Cultures ([1]; Al-1, 1,000 cells, stimulus 0.1 ng): 39 | Colonies/Cultures ([1]; Al-1, 1,000 cells, stimulus 1 ng): 23 | Colonies/Cultures ([1]; Al-1, 1,000 cells, stimulus 10 ng): 24 | Colonies/Cultures ([1]; Al-1, 1,000 cells, stimulus 100 ng, mean of duplicate colony counts): 32 | Colonies/Cultures ([1]; Al-1, 10,000 cells, stimulus 0.01 ng): 695 | Colonies/Cultures ([1]; Al-1, 10,000 cells, stimulus 0.1 ng): 305 | Colonies/Cultures ([1]; Al-1, 10,000 cells, stimulus 1 ng): 129 | Colonies/Cultures ([1]; Al-1, 10,000 cells, stimulus 10 ng): 17 | Colonies/Cultures ([1]; Al-1, 10,000 cells, stimulus 100 ng, mean of duplicate colony counts): 18 | Colonies/Cultures ([2]; stimulus 0.01 ng): 542 | Colonies/Cultures ([2]; stimulus 0.1 ng): 430 | Colonies/Cultures ([2]; stimulus 1 ng): 192 | Colonies/Cultures ([2]; stimulus 10 ng): 97 | Colonies/Cultures ([2]; stimulus 100 ng, mean of duplicate colony counts): 125 | Effect on colony counts (Ewing's Sarcoma cells; between 0.1 and 100 ng LIF per culture, agar cultures, different Ewing's cell lines): able to significantly reduce colony counts | Magnitude of colony reduction relative to other growth factors tested (Ewing's Sarcoma cells; culture of Ewing's Sarcoma cells): greater than those induced by other growth factors tested | Number of colonies compared to untreated controls (Ewing's Sarcoma cells; culture of Ewing's Sarcoma cells, dose-dependent): significantly reduces the number of colonies | Frequency of colonies from LIF-pretreated cells, lower compared to control cells ([3]; Al-5, 100 ng/ml LIF for seven days in suspension, then agar 5×10^3 cells per ml, 18 days, three experiments): 35-55% | Proportion of large colonies in LIF stimulated agar cultures ([3]; pretreatment with LIF in suspension cultures for 7-14 days): further reduced | pKd [4]: 9.89
